Test system: SK-OV-3 cells
Test: Effect of compounds on tryptophan catabolism in SK-OV-3 cell line (inhibition of kynurenine production, LC-MS/MS)
Format: cell-based
Details: Homo sapiens, SK-OV-3, 24 h, SK-OV-3 cell line, 24 h incubation, kynurenine in supernatant by LC-MS/MS; read-out: IC50 Ranges (ic50 values for inhibition of Kynurenine production)
Method in brief: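 Cells seeded overnight in McCoy's 5A/10% FBS, then switched to DMEM F-12 with 6 mg/mL L-tryptophan; compounds added at 8 3-fold dilutions from 30 μM, in duplicate, 24 h at 37 °C. Supernatant kynurenine measured by LC-MS/MS; ATP-based viability run in parallel; IC50 from % inhibition of Kyn production.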

Row | SMILES | IC50
1 | O=C(Nc1ccc(Cl)cc1)N(Cc1ccc2ocnc2c1)C1CCC1 [Compound 232, 1-(1,3-benzoxazol-5-ylmethyl)-3-(4-chlorophenyl)-1-cyclobutyl-urea] | < 100 nM
2 | O=C(Nc1ccccc1)N(Cc1ccccc1Cl)C1CCCC1 [Compound 38, 1-[(2-chlorophenyl)methyl]-1-cyclopentyl-3-phenyl-urea] | 500 to 1000 nM
3 | Cc1ccc(CN(C(=O)Nc2ccc(C#CCc3ccccc3)cc2)C2CCCC2)o1 [Compound 156, 1-cyclopentyl-1-[(5-methyl-2-furyl)methyl]-3-[4-(3-phenylprop-1-ynyl)phenyl]urea] | 500 to 1000 nM
4 | O=C(Nc1ccc(F)c(F)c1)N(Cc1cccs1)C1CCCC1 [Compound 4, 1-cyclopentyl-3-(3,4-difluorophenyl)-1-(2-thienylmethyl)urea] | 500 to 1000 nM
5 | CC1(CN(C(=O)Nc2ccc(F)cc2)C2CCCC2)CCN(S(C)(=O)=O)CC1 [Compound 113, 1-cyclopentyl-3-(4-fluorophenyl)-1-[(4-methyl-1-methylsulfonyl-4-piperidyl)methyl]urea] | 1000 to 5000 nM
6 | Cc1ccc(CN(C(=O)Nc2ccc(C#N)cc2)C2CC3(COC3)C2)o1 [Compound 287, 3-(4-cyanophenyl)-1-[(5-methyl-2-furyl)methyl]-1-(2-oxaspiro[3.3]heptan-6-yl)urea] | > 5000 nM
7 | Cc1ccc(CN(C(=O)Nc2ccc(Cl)cc2)c2nonc2C)o1 [Compound 298, 3-(4-chlorophenyl)-1-[(5-methyl-2-furyl)methyl]-1-(4-methyl-1,2,5-oxadiazol-3-yl)urea] | < 100 nM
8 | Cc1ccc(CN(C(=O)Nc2ccc(C#Cc3ccccc3)cc2)C2CCCC2)o1 [Compound 155, 1-cyclopentyl-1-[(5-methyl-2-furyl)methyl]-3-[4-(2-phenylethynyl)phenyl]urea] | 500 to 1000 nM
9 | Cn1ncc(CN(C(=O)Nc2ccc(F)cc2)C2CCCC2)c1Cl [Compound 44, 1-[(5-chloro-1-methyl-pyrazol-4-yl)methyl]-1-cyclopentyl-3-(4-fluorophenyl) urea] | 500 to 1000 nM
10 | Cc1ccc(C(C)N(C(=O)Nc2ccc(F)cc2)C2CCCC2)o1 (racemic) [Compound 191, 1-cyclopentyl-3-(4-fluorophenyl)-1-[1-(5-methyl-2-furyl)ethyl]urea] | 500 to 1000 nM
11 | CCc1ccc(NC(=O)N(Cc2ccc(C)o2)C2CCCC2)cc1 [Compound 177, 1-cyclopentyl-3-(4-ethylphenyl)-1-[(5-methyl-2-furyl)methyl]urea] | < 100 nM
12 | Cc1ccc(CN(C(=O)Nc2ccc(Cl)cc2)C2CC(F)(F)C2)o1 [Compound 247, 3-(4-chlorophenyl)-1-(3,3-difluorocyclobutyl)-1-[(5-methyl-2-furyl)methyl]urea] | 100 to 500 nM
13 | Cc1ccc(CN(C(=O)Nc2ccc(Cl)cc2)c2cnc[nH]2)o1 [Compound 183, 3-(4-chlorophenyl)-1-(1H-imidazol-5-yl)-1-[(5-methyl-2-furyl)methyl]urea] | 1000 to 5000 nM
14 | Cn1ncc2ccc(CN(C(=O)Nc3ccc(Cl)cc3)C3CCC3)cc21 [Compound 235, 3-(4-chlorophenyl)-1-cyclobutyl-1-[(1-methylindazol-6-yl)methyl]urea] | < 100 nM
15 | O=C(NCCc1ccccc1)N(Cc1ccco1)C1CCCC1 [Compound 29, 1-cyclopentyl-1-(2-furylmethyl)-3-(2-phenylethyl)urea] | > 5000 nM
16 | Cc1ccc(CN(C(=O)Nc2ccccc2)C2CC2)o1 [Compound 167, 1-cyclopropyl-1-[(5-methyl-2-furyl)methyl]-3-phenyl-urea] | 1000 to 5000 nM
17 | O=C(Nc1ccc(F)cc1)N(Cc1ccncc1)C1CCCC1 [Compound 75, 1-cyclopentyl-3-(4-fluorophenyl)-1-(4-pyridylmethyl)urea] | > 5000 nM
18 | Cc1ccc(CN(C(=O)Nc2ccc(-c3cnn(C)c3)nc2)C2CCCC2)o1 [Compound 160, 1-cyclopentyl-1-[(5-methyl-2-furyl)methyl]-3-[6-(1-methylpyrazol-4-yl)-3-pyridyl]urea] | 1000 to 5000 nM
19 | O=C(Nc1ccc(F)cc1)N(Cc1ccccn1)C1CCCC1 [Compound 68, 1-cyclopentyl-3-(4-fluorophenyl)-1-(2-pyridylmethyl)urea] | 1000 to 5000 nM
20 | Cc1ccc(CN(C(=O)Nc2ccc(Cl)cc2)c2ncccc2C)o1 [Compound 318, 3-(4-chlorophenyl)-1-[(5-methyl-2-furyl)methyl]-1-(3-methyl-2-pyridyl)urea] | < 100 nM
21 | O=C(Nc1ccc(Cl)cc1Cl)N(Cc1cccs1)C1CCCC1 [Compound 59, 1-cyclopentyl-3-(2,4-dichlorophenyl)-1-(2-thienylmethyl)urea] | 500 to 1000 nM
22 | N#Cc1ccc(NC(=O)N(Cc2cc3ccccc3o2)C2CCC2)cc1 [Compound 234, 1-(benzofuran-2-ylmethyl)-3-(4-cyanophenyl)-1-cyclobutyl-urea] | < 100 nM
23 | O=C(Nc1ccc(Cl)cc1)N(Cc1ccc2ncsc2c1)C1CCC1 [Compound 243, 1-(1,3-benzothiazol-6-ylmethyl)-3-(4-chlorophenyl)-1-cyclobutyl-urea] | 100 to 500 nM

Row | SMILES | IC50
24 | COc1cc(NC(=O)N(Cc2ccc(C)o2)C2CCCC2)ccc1C#N [Compound 205] | 100 to 500 nM
25 | Cc1ccc(CN(C(=O)Nc2ccc(C#N)cc2)c2cnoc2)o1 [Compound 304, 3-(4-cyanophenyl)-1-isoxazol-4-yl-1-[(5-methyl-2-furyl)methyl]urea] | 100 to 500 nM
26 | CC(NC(=O)Nc1ccc(Cl)cc1)c1ccc(Cl)s1 (racemic) [Compound 199, 1-(4-chlorophenyl)-3-[1-(5-chloro-2-thienyl)ethyl]urea] | 500 to 1000 nM
27 | O=C(Nc1ccccc1)N(Cc1ccco1)C1CCCC1 [Compound 28, 1-cyclopentyl-1-(2-furylmethyl)-3-phenyl-urea] | 500 to 1000 nM
28 | CC(NC(=O)Nc1ccccc1)c1ccc(F)cc1 (racemic) [Compound 197, 1-[1-(4-fluorophenyl)ethyl]-3-phenyl-urea] | 1000 to 5000 nM
29 | O=C(Nc1ccccc1)N(Cc1ccccn1)C1CCCCC1 [Compound 32, 1-cyclohexyl-3-phenyl-1-(2-pyridylmethyl)urea] | > 5000 nM
30 | C#Cc1ccc(NC(=O)N(Cc2ccc(C)o2)C2CCOCC2)cc1 [Compound 259, 3-(4-ethynylphenyl)-1-[(5-methyl-2-furyl)methyl]-1-tetrahydropyran-4-yl-urea] | 100 to 500 nM
31 | N#Cc1ccc(NC(=O)N(Cc2cccc3ncsc23)C2CCC2)cc1 [Compound 263, 1-(1,3-benzothiazol-7-ylmethyl)-3-(4-cyanophenyl)-1-cyclobutyl-urea] | 100 to 500 nM
32 | O=C(Nc1ccc(F)cc1)N(Cc1cnccn1)C1CCCC1 [Compound 70, 1-cyclopentyl-3-(4-fluorophenyl)-1-(pyrazin-2-ylmethyl)urea] | > 5000 nM
33 | N#Cc1cc(CN(C(=O)Nc2ccc(Cl)cc2)C2CCCC2)ccn1 [Compound 114, 3-(4-chlorophenyl)-1-[(2-cyano-4-pyridyl)methyl]-1-cyclopentyl-urea] | 100 to 500 nM
34 | Cn1nccc1N(Cc1ccc2ncsc2c1)C(=O)Nc1ccc(C#CCO)cc1 [Compound 280, 1-(1,3-benzothiazol-6-ylmethyl)-3-[4-(3-hydroxyprop-1-ynyl)phenyl]-1-(2-methylpyrazol-3-yl)urea] | 1000 to 5000 nM
35 | O=C(Nc1ccc(Cl)cc1)N(Cc1cccc2ncsc12)C1CCC1 [Compound 262, 1-(1,3-benzothiazol-7-ylmethyl)-3-(4-chlorophenyl)-1-cyclobutyl-urea] | < 100 nM
36 | Cc1ccc(CN(C(=O)Nc2ccc(Cl)cc2)C23CC(C2)C3)o1 [Compound 284, 1-(1-bicyclo[1.1.1]pentanyl)-3-(4-chlorophenyl)-1-[(5-methyl-2-furyl)methyl]urea] | 100 to 500 nM
37 | Cc1ccc(CN(C(=O)Nc2ccc(C#N)cc2)C2CCCC2(F)F)o1 (stereo not shown) [Compound 214, 3-(4-cyanophenyl)-1-(2,2-difluorocyclopentyl)-1-[(5-methyl-2-furyl)methyl]urea] | < 100 nM
38 | CC(c1cccc(C#N)c1)N(C(=O)Nc1ccc(F)cc1)C1CCCC1 (racemic) [Compound 187, 1-[1-(3-cyanophenyl)ethyl]-1-cyclopentyl-3-(4-fluorophenyl)urea] | 100 to 500 nM
39 | Cc1ccc(CN(C(=O)Nc2nc(-c3ccccn3)cs2)C2CCCC2)o1 [Compound 133, 1-cyclopentyl-1-[(5-methyl-2-furyl)methyl]-3-[4-(2-pyridyl)thiazol-2-yl]urea] | 100 to 500 nM
40 | CC(C)(C)OC(=O)N1CCC(CN(C(=O)Nc2ccccc2)C2CCCC2)CC1 [Compound 118, tert-butyl 4-[[cyclopentyl(phenylcarbamoyl)amino]methyl]piperidine-1-carboxylate] | 1000 to 5000 nM
41 | CC(=O)c1ccc(NC(=O)N(Cc2ccc(C)o2)C2CCCC2)cc1 [Compound 94, 3-(4-acetylphenyl)-1-cyclopentyl-1-[(5-methyl-2-furyl)methyl]urea] | 1000 to 5000 nM
42 | O=C(Nc1ccc(Cl)cc1)N(Cc1cnoc1)C1CCCC1 [Compound 63, 3-(4-chlorophenyl)-1-cyclopentyl-1-(isoxazol-4-ylmethyl)urea] | 1000 to 5000 nM
43 | N#Cc1ccc(NC(=O)N(Cc2ccc3ncsc3c2)C2CCOCC2)cc1 [Compound 265, 1-(1,3-benzothiazol-6-ylmethyl)-3-(4-cyanophenyl)-1-tetrahydropyran-4-yl-urea] | 1000 to 5000 nM
44 | Cc1ccc(CN(C(=O)Nc2ccccc2)C(C)C)o1 [Compound 138, 1-isopropyl-1-[(5-methyl-2-furyl)methyl]-3-phenyl-urea] | 1000 to 5000 nM
45 | Cc1ncc(CN(C(=O)Nc2ccc(C#CCO)cc2)c2conc2C)o1 [Compound 321, 3-[4-(3-hydroxyprop-1-ynyl)phenyl]-1-(3-methylisoxazol-4-yl)-1-[(2-methyloxazol-5-yl)methyl]urea] | 1000 to 5000 nM
46 | Cc1ccc(CN(C(=O)Nc2ccc(Cl)cc2)[C@H]2C[C@H](F)C2)o1 [Compound 273, 3-(4-chlorophenyl)-1-(3-fluorocyclobutyl)-1-[(5-methyl-2-furyl)methyl]urea] | 100 to 500 nM
